The results in this text go back to patent US12590062B2, “PD-1/PD-L1 inhibitors” (Gilead Sciences, Inc., priority 2017, dated 2026).

For assay [1], the target named is T1, PD-L1 (Homo sapiens, UniProt Q9NZQ7).
T1 construct: determine if they can specifically dimerize the extracellular domains of PD-L1
The assay can be described thus: PD-L1/PD-L1 dimerization biochemical protein-protein interaction assay (ALPHA). It is filed as binding. To be noted: compound-induced PD-L1 dimerization, head prints '1 nM' (0.5 nM His-tagged PD-L1 and 0.5 nM FLAG-tagged PD-L1), read-out: AC50 PDL1 Dimer Alpha 1 nM. The procedure, abridged:
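After 2 h at 25 °C with compound, His- and FLAG-tagged PD-L1 ECDs (each 0.5 nM final; 25 mM Hepes pH 7.4, 150 mM NaCl) were detected by sequential anti-His acceptor and anti-FLAG donor bead incubations. Dose-response curves fitted to four-parameter equation for AC50.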

Assay [2] deals with T2, interaction between the recombinant extracellular domain (ECD) of PD-1 and native cell-bound PD-L1 (Homo sapiens, UniProt Q9NZQ7).
T2 construct: expressed in transfected cells
In words: CHO/PD-L1 cell capture assay. It is filed as cell-based. To be noted: CHO cells overexpressing PD-L1, pre-incubated 1 hr with compound, captured on biotinylated Fc-PD-1 coated plates, 75 min at room temperature. The method in brief: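 EC50 values came from four-parameter fits of counts of Draq5-stained CHO-PD-L1 cells retained on plate-bound biotinylated Fc-PD-1 ECD, enumerated by high-content imaging. Cells in PBS pH 7.4 with EDTA and 2% BSA had 1 hr compound pre-incubation, then 75 min capture at room temperature.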

Assay [3] deals with T3, PD-1/PD-L1 interaction (Homo sapiens, UniProt Q9NZQ7).
T3 construct: expressed in transfected cells; host or cells: CHO cells (aAPC-PD-L1) co-cultured with Jurkat cells overexpressing PD-1 and an NFAT-luciferase reporter
In words: PD-1/PD-L1 NFAT reporter co-culture assay. It is filed as cell-based. To be noted: Jurkat PD-1 NFAT-luciferase cells co-cultured with aAPC-PD-L1 CHO cells, 6 hrs at 37° C.; read-out: EC50 NFAT Luciferase. The procedure, abridged:
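Luminescence (ONE-Glo) after 6 h, 37 °C co-culture reports NFAT-luciferase in PD-1 Jurkat cells, which PD-1/PD-L1 engagement suppresses. Partner cells: CHO expressing anti-CD3 and PD-L1. EC50 from four-parameter dose-response fit.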

In assay [4] the target is PD-1/PD-L1 (Homo sapiens, UniProt Q9NZQ7). The assay can be described thus: PD-1/PD-L1 biochemical protein-protein interaction assay (ALPHA). The class given is binding. To be noted: 0.3 nM His tagged PD-L1, 2.5 nM biotinylated Fc-PD-1, 60 minutes at 25° C., read-out: IC50 PD-L1-PD-1 Alpha IC50-mono PD-L1-fcP-D1. The procedure, abridged: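 His-PD-L1 ECD 0.3 nM + biotin-Fc-PD-1 2.5 nM (final), 25 mM Hepes pH 7.4, 150 mM NaCl, 3.4 mM EDTA; 60 min, 25° C; anti-His acceptor/streptavidin donor ALPHA beads; decreased signal = blocked binding; 4-parameter IC50.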

SMILES strings stand for the structures.

Chain of PD-1/PD-L1 (Q9NZQ7 19-238 limits assumed): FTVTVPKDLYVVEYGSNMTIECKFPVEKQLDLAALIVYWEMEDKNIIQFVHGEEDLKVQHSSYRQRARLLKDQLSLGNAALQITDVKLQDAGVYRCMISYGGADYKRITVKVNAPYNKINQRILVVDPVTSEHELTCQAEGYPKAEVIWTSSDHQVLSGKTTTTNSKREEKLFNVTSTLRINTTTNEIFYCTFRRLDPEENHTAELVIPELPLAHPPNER
T1 sequence (Q9NZQ7 19-238 limits assumed): as above
T1 sequence (Q9NZQ7 19-238 limits assumed): as above
T3 sequence (Q9NZQ7 19-290): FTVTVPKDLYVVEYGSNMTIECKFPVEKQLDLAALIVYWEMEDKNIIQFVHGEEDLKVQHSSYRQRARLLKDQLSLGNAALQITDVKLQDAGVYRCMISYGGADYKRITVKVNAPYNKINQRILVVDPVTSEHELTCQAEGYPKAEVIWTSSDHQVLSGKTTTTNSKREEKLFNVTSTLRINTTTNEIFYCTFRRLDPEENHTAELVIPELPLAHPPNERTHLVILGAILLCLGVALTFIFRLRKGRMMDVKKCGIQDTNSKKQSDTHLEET
T2 sequence (Q9NZQ7 19-290): as above

As to `COc1nc(OCc2cccc(-c3cccc(COc4nc(OC)c(C5=NCCN5)cc4Cl)c3C)c2C)c(Cl)cc1C1=NCCN1` [Example 30, 6,6′-(((2,2′-dimethyl-[1,1′-biphenyl]-3,3′-diyl)bis(methylene))bis(oxy))bis(5-chloro-3-(4,5-dihydro-1H-imidazol-2-yl)-2-methoxypyridine)], the AC50 in assay [1] was 369 nM. Also, the EC50 in assay [2] was 52.1 nM; in assay [3], not below 50000 nM.
As to `COc1nc(OCc2cccc(-c3cccc(COc4nc(OC)c(CN[C@](C)(CO)C(=O)O)cc4Cl)c3C)c2C)c(Cl)cc1CN[C@](C)(CO)C(=O)O` [Example 43, (2R,2′R)-2,2′-((((((2,2′-dimethyl-[1,1′-biphenyl]-3,3′-diyl)bis(methylene))bis(oxy))bis(5-chloro-2-methoxypyridine-6,3-diyl))bis(methylene))bis(azanediyl))bis(3-hydroxy-2-methylpropanoic acid)], in assay [1], the AC50 was not below 10000 nM. In addition, the EC50 was found to be 65.2 nM in assay [2] and 79 nM in assay [3].
As for `COc1nc(OCc2cccc(-c3cccc(COc4nc(OC)c(CN[C@@H](C)CC(=O)O)cc4Cl)c3C)c2C)c(Cl)cc1CN[C@@H](C)CC(=O)O` [Example 74, (3S,3′S)-3,3′-((((((2,2′-dimethyl-[1,1′-biphenyl]-3,3′-diyl)bis(methylene))bis(oxy))bis(5-chloro-2-methoxypyridine-6,3-diyl))bis(methylene))bis(azanediyl))dibutyric acid], the half-maximal activity concentration (AC50) in assay [1] is not below 10000 nM. Moreover, the concentration for a half-maximal effect (EC50) was found to be 176 nM in assay [2] and 138 nM in assay [3].
Turning to `COc1nc(OCc2cccc(-c3cccc(COc4nc(OC)c(CN[C@H](C)C(=O)O)cc4Cl)c3C)c2C)c(Cl)cc1CN[C@H](C)C(=O)O` [Example 90, (2R,2′R)-2,2′-((((((2,2′-dimethyl-[1,1′-biphenyl]-3,3′-diyl)bis(methylene))bis(oxy))bis(5-chloro-2-methoxypyridine-6,3-diyl))bis(methylene))bis(azanediyl))dipropionic acid], the half-maximal activity concentration (AC50) in assay [1] was not below 10000 nM. Further, the EC50 stood at 219 nM in assay [2] and 113 nM in assay [3].
As for `COc1nc(OCc2cccc(-c3cccc(COc4nc(OC)c(CNC5(C(=O)O)CC5)cc4Cl)c3C)c2C)c(Cl)cc1CNC1(C(=O)O)CC1` [Example 91, 1,1′-((((((2,2′-dimethyl-[1,1′-biphenyl]-3,3′-diyl)bis(methylene))bis(oxy))bis(5-chloro-2-methoxypyridine-6,3-diyl))bis(methylene))bis(azanediyl))bis(cyclopropane-1-carboxylicacid)], the concentration at half-maximal activity (AC50) in assay [1] is not below 10000 nM. Moreover, the values for the 50% effective concentration (EC50) in assay [2] and in assay [3] were 196 nM and 523 nM, respectively.
For `Cc1c(COc2cc(OCc3cncc(C#N)c3)c(CNC[C@@H](O)CC(=O)O)cc2Cl)cccc1-c1cccc(-c2ccc(OCCNC[C@@H](O)CC(=O)O)c([N+](=O)[O-])c2)c1C` [Example 92, (S)-4-((4-((4″-(2-(((S)-3-carboxy-2-hydroxypropyl)amino)ethoxy)-2,2′-dimethyl-3″-nitro-[1,1′:3′,1″-terphenyl]-3-yl)methoxy)-5-chloro-2-((5-cyanopyridin-3-yl)methoxy)benzyl)amino)-3-hydroxybutanoic acid], in that order: 170 nM, 25.9 nM and 63 nM.
Regarding `Cc1c(COc2cc(OCc3cncc(C#N)c3)c(CNCCO)cc2Cl)cccc1-c1cccc2c1CCN2C(=O)c1ccc(CNCCO)c(OCc2cncc(C#N)c2)c1` [Example 205, 5-((4-Chloro-5-((3-(1-(3-((5-cyanopyridin-3-yl)methoxy)-4-(((2-hydroxyethyl)amino)methyl)benzoyl)indolin-4-yl)-2-methylbenzyl)oxy)-2-(((2-hydroxyethyl)amino)methyl)phenoxy)methyl)nicotinonitrile], the results for the EC50 in assay [2] and in assay [3] were 394 nM and 1430 nM, respectively. In assay [4], the IC50 worked out at 6.9 nM.
`Cc1c(COc2cc(OCc3cncc(C#N)c3)c(CNC[C@@H](O)CC(=O)O)cc2Cl)cccc1-c1cccc2c1CCN2C(=O)c1ccc(CNC[C@@H](O)CC(=O)O)c(OCc2cncc(C#N)c2)c1` [Example 206, (S)-4-((4-(4-(3-((4-((((S)-3-Carboxy-2-hydroxypropyl)amino)methyl)-2-chloro-5-((5-cyanopyridin-3-yl)methoxy)phenoxy)methyl)-2-methylphenyl)indoline-1-carbonyl)-2-((5-cyanopyridin-3-yl)methoxy)benzyl)amino)-3-hydroxybutanoic acid]: the EC50 in assay [2] is 161 nM; in assay [3], 672 nM. Also, the IC50 in assay [4] is 0.2 nM.
As for `COc1nc(OCc2cccc(-c3cccc(COc4nc(OC)c(CNC[C@@H](O)CC(=O)O)cc4I)c3C)c2C)c(I)cc1CNC[C@@H](O)CC(=O)O` [Example 241, (3S,3′S)-4,4′-((((((2,2′-dimethyl-[1,1′-biphenyl]-3,3′-diyl)bis(methylene))bis(oxy))bis(5-iodo-2-methoxypyridine-6,3-diyl))bis(methylene))bis(azanediyl))bis(3-hydroxybutanoic acid)], the EC50 was determined as 166 nM in assay [2] and 275 nM in assay [3]. Further, the IC50 in assay [4] is 0.6 nM.
The matching figures for `Cc1c(COc2ccc(CNC[C@@H](O)CC(=O)O)c(OCc3cncc(C#N)c3)n2)cccc1-c1cccc(COc2ccc(CNC[C@@H](O)CC(=O)O)c(OCc3cncc(C#N)c3)n2)c1C` [Example 242, (3S,3′S)-4,4′-((((((2,2′-dimethyl-[1,1′-biphenyl]-3,3′-diyl)bis(methylene))bis(oxy))bis(2-((5-cyanopyridin-3-yl)methoxy)pyridine-6,3-diyl))bis(methylene))bis(azanediyl))bis(3-hydroxybutanoic acid)]: 129 nM, 288 nM and 0.2 nM.
For `COc1nc(OCc2cccc(-c3cccc(COc4nc(OC)c(CNC[C@@H](O)CC(=O)O)cc4C#N)c3C)c2C)c(C#N)cc1CNC[C@@H](O)CC(=O)O` [Example 243, (3S,3′S)-4,4′-((((((2,2′-dimethyl-[1,1′-biphenyl]-3,3′-diyl)bis(methylene))bis(oxy))bis(5-cyano-2-methoxypyridine-6,3-diyl))bis(methylene))bis(azanediyl))bis(3-hydroxybutanoic acid)], in that order: 90.6 nM, 393 nM and 0.2 nM.
Turning to `COc1cc(OCc2cccc(-c3cccc(COc4cc(OC)c(CNC[C@@H](O)CC(=O)O)c(OCc5cncc(C#N)c5)c4)c3C)c2C)cc(OCc2cncc(C#N)c2)c1CNC[C@@H](O)CC(=O)O` [Example 245, (3S,3′S)-4,4′-((((((2,2′-dimethyl-[1,1′-biphenyl]-3,3′-diyl)bis(methylene))bis(oxy))bis(2-((5-cyanopyridin-3-yl)methoxy)-6-methoxy-4,1-phenylene))bis(methylene))bis(azanediyl))bis(3-hydroxybutanoic acid)], the EC50 in assay [2] was 308 nM; in assay [3], 3440 nM. Besides, in assay [4], the IC50 turned out to be 0.6 nM.
In the case of `Cc1c(COc2ccc(CNC[C@@H](O)CC(=O)O)c(OCc3cncc(C#N)c3)c2)cccc1-c1cccc(COc2ccc(CNC[C@@H](O)CC(=O)O)c(OCc3cncc(C#N)c3)c2)c1C` [Example 248, (3S,3′S)-4,4′-((((((2,2′-dimethyl-[1,1′-biphenyl]-3,3′-diyl)bis(methylene))bis(oxy))bis(2-((5-cyanopyridin-3-yl)methoxy)-4,1-phenylene))bis(methylene))bis(azanediyl))bis(3-hydroxybutanoic acid)], the results for the EC50 in assay [2] and in assay [3] were 200 nM and 540 nM, respectively. Besides, the IC50 in assay [4] was determined as 0.2 nM.
For `Cc1c(COc2cc(OCC3CCOC3)c(CNC[C@@H](O)CC(=O)O)cc2Cl)cccc1-c1cccc(COc2cc(OCC3CCOC3)c(CNC[C@@H](O)CC(=O)O)cc2Cl)c1C` (stereo partly drawn) [Example 280, (3S,3′S)-4,4′-((((((2,2′-dimethyl-[1,1′-biphenyl]-3,3′-diyl)bis(methylene))bis(oxy))bis(5-chloro-2-((tetrahydrofuran-3-yl)methoxy)-4,1-phenylene))bis(methylene))bis(azanediyl))bis(3-hydroxybutanoic acid)], in that order: 208 nM, 592 nM and 0.3 nM.

By AC50 is commonly meant the midpoint of the concentration-response curve, whichever way the signal moves. As a reminder, the EC50 is the concentration that produces a half-maximal response. The term IC50 denotes the point on the concentration scale where inhibition reaches its midpoint.
